Among the data in patent publication US11254663B2 (BRISTOL-MYERS SQUIBB COMPANY, priority 2019, dated 2022) are EC50 values, retold here.

Structures are written as SMILES.

Sequence of FXR (Q96RI1 262-486): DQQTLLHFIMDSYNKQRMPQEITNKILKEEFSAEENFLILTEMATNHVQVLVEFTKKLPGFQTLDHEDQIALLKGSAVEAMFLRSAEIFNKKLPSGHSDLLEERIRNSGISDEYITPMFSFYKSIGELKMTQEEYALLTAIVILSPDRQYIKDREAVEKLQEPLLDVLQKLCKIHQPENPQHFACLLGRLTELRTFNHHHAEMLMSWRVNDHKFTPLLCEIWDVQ

The target of the experiment is FXR (Homo sapiens (Human), UniProt Q96RI1). The experiment in a line: transient human FXR/Gal4-luciferase reporter assay. It counts as cell-based. As to conditions: Gal4-hFXR fusion construct, HEK293 reporter cells; response relative to 8 μM GW-4064. Summed up:
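HEK293 cells stably carrying a 5×Gal4 response element–firefly luciferase reporter were transiently transfected overnight with a Gal4 DBD–human FXR LBD fusion plasmid. Compound was added in DMSO and cells were incubated overnight at 37 °C, 5% CO2. Activity was read as Steady-Glo luminescence.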
Compound `COc1ncc(-c2cccc(N(CC34CCC(c5noc(C6(C)CC6)n5)(CC3)CC4)C(=O)C34CC(F)(C3)C4)c2)cn1` [Example 400, 3-fluoro-N-(3-(2-methoxypyrimidin-5-yl)phenyl)-N-((4-(5-(1-methylcyclopropyl)-1,2,4-oxadiazol-3-yl)bicyclo[2.2.2]octan-1-yl)methyl)bicyclo[1.1.1]pentane-1-carboxamide] registered a concentration giving a half-maximal response (EC50) of 51 nM.
Take `CCOc1ccc(-c2cccc(N(CC34CCC(c5noc(C6(C)CC6)n5)(CC3)CC4)C(=O)C34CC(F)(C3)C4)c2)cn1` [Example 401, N-(3-(6-ethoxypyridin-3-yl)phenyl)-3-fluoro-N-((4-(5-(1-methylcyclopropyl)-1,2,4-oxadiazol-3-yl)bicyclo[2.2.2]octan-1-yl)methyl)bicyclo[1.1.1]pentane-1-carboxamide]: the EC50 was found to be 42 nM. This EC50 and that of the compound before are within 1.5-fold of each other.
As to `Cc1nc2ccc(-c3cccc(N(CC45CCC(c6noc(C7(C)CC7)n6)(CC4)CC5)C(=O)C45CC(F)(C4)C5)c3)cc2s1` [Example 402, 3-fluoro-N-(3-(2-methylbenzo[d]thiazol-6-yl)phenyl)-N-((4-(5-(1-methylcyclopropyl)-1,2,4-oxadiazol-3-yl)bicyclo[2.2.2]octan-1-yl)methyl)bicyclo[1.1.1]pentane-1-carboxamide], the EC50 was 35 nM.
Under `CC1(c2nc(C34CCC(CN(C(=O)C56CC(F)(C5)C6)c5cccc(-c6cnc(C7CC7)nc6)c5)(CC3)CC4)no2)CC1` [Example 403, N-(3-(2-cyclopropylpyrimidin-5-yl)phenyl)-3-fluoro-N-((4-(5-(1-methylcyclopropyl)-1,2,4-oxadiazol-3-yl)bicyclo[2.2.2]octan-1-yl)methyl)bicyclo[1.1.1]pentane-1-carboxamide] stands 100 nM; under `CC1(c2nc(C34CCC(CN(C(=O)C56CC(F)(C5)C6)c5cccc(-c6cnc(C(F)(F)F)nc6)c5)(CC3)CC4)no2)CC1` [Example 404, 3-fluoro-N-((4-(5-(1-methylcyclopropyl)-1,2,4-oxadiazol-3-yl)bicyclo[2.2.2]octan-1-yl)methyl)-N-(3-(2-(trifluoromethyl)pyrimidin-5-yl)phenyl)bicyclo[1.1.1]pentane-1-carboxamide], 221 nM.
The same measure for `CC1(c2nc(C34CCC(CN(C(=O)C56CC(F)(C5)C6)c5cccc(-c6ccc(OC(F)F)cc6)c5)(CC3)CC4)no2)CC1` [Example 405, N-(4′-(difluoromethoxy)-[1,1′-biphenyl]-3-yl)-3-fluoro-N-((4-(5-(1-methylcyclopropyl)-1,2,4-oxadiazol-3-yl)bicyclo[2.2.2]octan-1-yl)methyl)bicyclo[1.1.1]pentane-1-carboxamide]: 53 nM; for `Cn1nc(C23CCC(CN(C(=O)C45CC(F)(C4)C5)c4cccc(-c5ccc(NS(C)(=O)=O)cc5)c4)(CC2)CC3)cc1C1CC1` [Example 406, N-((4-(5-cyclopropyl-1-methyl-1H-pyrazol-3-yl)bicyclo[2.2.2]octan-1-yl)methyl)-3-fluoro-N-(4′-(methylsulfonamido)-[1,1′-biphenyl]-3-yl)bicyclo[1.1.1]pentane-1-carboxamide]: 203 nM.
Under `CCOc1ncc(-c2cccc(N(CC34CCC(c5cc(C6CC6)n(C)n5)(CC3)CC4)C(=O)C34CC(F)(C3)C4)c2)cn1` [Example 407, N-((4-(5-cyclopropyl-1-methyl-1H-pyrazol-3-yl)bicyclo[2.2.2]octan-1-yl)methyl)-N-(3-(2-ethoxypyrimidin-5-yl)phenyl)-3-fluorobicyclo[1.1.1]pentane-1-carboxamide] stands 209 nM; under `COc1ccc(-c2cccc(N(CC34CCC(c5cc(C6CC6)n(C)n5)(CC3)CC4)C(=O)C34CC(F)(C3)C4)c2)cc1` [Example 408, N-((4-(5-cyclopropyl-1-methyl-1H-pyrazol-3-yl)bicyclo[2.2.2]octan-1-yl)methyl)-3-fluoro-N-(4′-methoxy-[1,1′-biphenyl]-3-yl)bicyclo[1.1.1]pentane-1-carboxamide], 160 nM; under `Cc1nc2ccc(-c3cccc(N(CC45CCC(c6cc(C7CC7)n(C)n6)(CC4)CC5)C(=O)C45CC(F)(C4)C5)c3)cc2s1` [Example 409, N-((4-(5-cyclopropyl-1-methyl-1H-pyrazol-3-yl)bicyclo[2.2.2]octan-1-yl)methyl)-3-fluoro-N-(3-(2-methylbenzo[d]thiazol-6-yl)phenyl)bicyclo[1.1.1]pentane-1-carboxamide], 73 nM.
`Cn1nc(C23CCC(CN(C(=O)C45CC(F)(C4)C5)c4cccc(-c5cnc6nc(C7CC7)sc6c5)c4)(CC2)CC3)cc1C1CC1` [Example 410, N-((4-(5-cyclopropyl-1-methyl-1H-pyrazol-3-yl)bicyclo[2.2.2]octan-1-yl)methyl)-N-(3-(2-cyclopropylthiazolo[4,5-b]pyridin-6-yl)phenyl)-3-fluorobicyclo[1.1.1]pentane-1-carboxamide] showed a half-maximal effective concentration (EC50) of 465 nM.
On to `Cn1nc(C23CCC(CN(C(=O)C45CC(F)(C4)C5)c4cccc(-c5ccc6[nH]c(=O)oc6c5)c4)(CC2)CC3)cc1C1CC1` [Example 411, N-((4-(5-cyclopropyl-1-methyl-1H-pyrazol-3-yl)bicyclo[2.2.2]octan-1-yl)methyl)-3-fluoro-N-(3-(2-oxo-2,3-dihydrobenzo[d]oxazol-6-yl)phenyl)bicyclo[1.1.1]pentane-1-carboxamide], for which a half-maximal response (EC50) required 144 nM.
The compound `Cn1nc(C2CC2)cc1C12CCC(CN(C(=O)C34CC(F)(C3)C4)c3cccc(-c4ccc(NS(C)(=O)=O)cc4)c3)(CC1)CC2` [Example 412, N-((4-(3-cyclopropyl-1-methyl-1H-pyrazol-5-yl)bicyclo[2.2.2]octan-1-yl)methyl)-3-fluoro-N-(4′-(methylsulfonamido)-[1,1′-biphenyl]-3-yl)bicyclo[1.1.1]pentane-1-carboxamide] had an EC50 of 105 nM.
Consider `CCOc1ncc(-c2cccc(N(CC34CCC(c5cc(C6CC6)nn5C)(CC3)CC4)C(=O)C34CC(F)(C3)C4)c2)cn1` [Example 413, N-((4-(3-cyclopropyl-1-methyl-1H-pyrazol-5-yl)bicyclo[2.2.2]octan-1-yl)methyl)-N-(3-(2-ethoxypyrimidin-5-yl)phenyl)-3-fluorobicyclo[1.1.1]pentane-1-carboxamide], for which the half-maximal effective concentration (EC50) was determined as 192 nM.
The same measure for `COc1ccc(-c2cccc(N(CC34CCC(c5cc(C6CC6)nn5C)(CC3)CC4)C(=O)C34CC(F)(C3)C4)c2)cc1` [Example 414, N-((4-(3-cyclopropyl-1-methyl-1H-pyrazol-5-yl)bicyclo[2.2.2]octan-1-yl)methyl)-3-fluoro-N-(4′-methoxy-[1,1′-biphenyl]-3-yl)bicyclo[1.1.1]pentane-1-carboxamide]: 85 nM; for `Cc1nc2ccc(-c3cccc(N(CC45CCC(c6cc(C7CC7)nn6C)(CC4)CC5)C(=O)C45CC(F)(C4)C5)c3)cc2s1` [Example 415, N-((4-(3-cyclopropyl-1-methyl-1H-pyrazol-5-yl)bicyclo[2.2.2]octan-1-yl)methyl)-3-fluoro-N-(3-(2-methylbenzo[d]thiazol-6-yl)phenyl)bicyclo[1.1.1]pentane-1-carb oxamide]: 125 nM.
In turn, `CN1CCN(c2cccc(N(CC34CCC(c5nc(C6CC6)no5)(CC3)CC4)C(=O)C34CC(F)(C3)C4)c2)CC1` [Example 416, N-((4-(3-cyclopropyl-1,2,4-oxadiazol-5-yl)bicyclo[2.2.2]octan-1-yl)methyl)-3-fluoro-N-(3-(4-methylpiperazin-1-yl)phenyl)bicyclo[1.1.1]pentane-1-carboxamide] showed an EC50 of 1060 nM. This EC50 is about 8.5-fold higher than that of the compound before.
Under `CCOc1ncc(-c2cccc(N(CC34CCC(c5cnc(C(F)(F)F)nc5)(CC3)OC4)C(=O)C34CC(F)(C3)C4)c2)cn1` [Example 418, N-(3-(2-ethoxypyrimidin-5-yl)phenyl)-3-fluoro-N-((1-(2-(trifluoromethyl)pyrimidin-5-yl)-2-oxabicyclo[2.2.2]octan-4-yl)methyl)bicyclo[1.1.1]pentane-1-carboxamide] stands 2040 nM; under `CS(=O)(=O)Nc1ccc(-c2cccc(N(CC34CCC(c5cnc(C(F)(F)F)nc5)(CC3)OC4)C(=O)C34CC(F)(C3)C4)c2)cc1` [Example 419, 3-fluoro-N-(4′-(methylsulfonamido)-[1,1′-biphenyl]-3-yl)-N-((1-(2-(trifluoromethyl)pyrimidin-5-yl)-2-oxabicyclo[2.2.2]octan-4-yl)methyl)bicyclo[1.1.1]pentane-1-carboxamide], 523 nM.
Under `COc1ccc(-c2cccc(N(CC34CCC(c5cnc(C(F)(F)F)nc5)(CC3)OC4)C(=O)C34CC(F)(C3)C4)c2)cc1` [Example 420, 3-fluoro-N-(4′-methoxy-[1,1′-biphenyl]-3-yl)-N-((1-(2-(trifluoromethyl)pyrimidin-5-yl)-2-oxabicyclo[2.2.2]octan-4-yl)methyl)bicyclo[1.1.1]pentane-1-carboxamide] stands 802 nM; under `Cc1nc2ccc(-c3cccc(N(CC45CCC(c6cnc(C(F)(F)F)nc6)(CC4)OC5)C(=O)C45CC(F)(C4)C5)c3)cc2s1` [Example 421, 3-fluoro-N-(3-(2-methylbenzo[d]thiazol-6-yl)phenyl)-N-((1-(2-(trifluoromethyl)pyrimidin-5-yl)-2-oxabicyclo[2.2.2]octan-4-yl)methyl)bicyclo[1.1.1]pentane-1-carboxamide], 2170 nM; under `CCOc1ccc(-c2cccc(N(CC34CCC(c5cnc(C(F)(F)F)nc5)(CC3)OC4)C(=O)C34CC(F)(C3)C4)c2)cc1` [Example 422, N-(4′-ethoxy-[1,1′-biphenyl]-3-yl)-3-fluoro-N-((1-(2-(trifluoromethyl)pyrimidin-5-yl)-2-oxabicyclo[2.2.2]octan-4-yl)methyl)bicyclo[1.1.1]pentane-1-carboxamide], 1520 nM.
The same measure for `CCOc1ncc(-c2cncc(N(CC34CCC(c5nc(C6CC6)no5)(CC3)CC4)C(=O)C34CC(F)(C3)C4)c2)cn1` [Example 423, N-((4-(3-cyclopropyl-1,2,4-oxadiazol-5-yl)bicyclo[2.2.2]octan-1-yl)methyl)-N-(5-(2-ethoxypyrimidin-5-yl)pyridin-3-yl)-3-fluorobicyclo[1.1.1]pentane-1-carboxamide]: 238 nM.
